Measured values: ChEMBL document CHEMBL5380858 (J Med Chem, 2023)
Active and inactive are the calls of the source.

Tests used:
SARS-CoV-2 [1] = type: functional, organism-based; conditions: Severe acute respiratory syndrome coronavirus 2; MA10; dose 60.0 mg/kg, route po, time 3-5 day
SARS-CoV-2 [2] = type: functional, organism-based; conditions: Severe acute respiratory syndrome coronavirus 2; MA10; dose 30.0 mg/kg, route po, time 2-5 day
SARS-CoV-2 [3] = type: functional, organism-based; conditions: Severe acute respiratory syndrome coronavirus 2; MA10; dose 30.0 mg/kg, route po, time 2-5 day; remark: listed apart in the source
SARS-CoV-2 [4] = type: functional, organism-based; conditions: Severe acute respiratory syndrome coronavirus 2; MA10; dose 60.0 mg/kg, route po, time 2-5 day
SARS-CoV-2 [5] = type: functional, organism-based; conditions: Severe acute respiratory syndrome coronavirus 2; MA10; dose 60.0 mg/kg, route po, time 5.0 day
SARS-CoV-2 [6] = type: functional, organism-based; conditions: Severe acute respiratory syndrome coronavirus 2; MA10; dose 30.0 mg/kg, route po, time 2-5 day; remark: listed apart in the source
SARS-CoV-2 [7] = type: functional, organism-based; conditions: Severe acute respiratory syndrome coronavirus 2; MA10; dose 30.0 mg/kg, route po, time 2-5 day; remark: listed apart in the source
SARS-CoV-2 [8] = type: functional, organism-based; conditions: Severe acute respiratory syndrome coronavirus 2; MA10; dose 60.0 mg/kg, route po, time 2-5 day; remark: listed apart in the source
SARS-CoV-2 [9] = type: functional, organism-based; conditions: Severe acute respiratory syndrome coronavirus 2; MA10; dose 60.0 mg/kg, route po, time 2-5 day; remark: listed apart in the source
SARS-CoV-2 [10] = type: functional, organism-based; conditions: Severe acute respiratory syndrome coronavirus 2; MA10; dose 30.0 mg/kg, route po, time 2-5 day; remark: listed apart in the source
SARS-CoV-2 [11] = type: functional, organism-based; conditions: Severe acute respiratory syndrome coronavirus 2; MA10; dose 30.0 mg/kg, route po, time 2-5 day; remark: listed apart in the source
SARS-CoV-2 [12] = type: functional, organism-based; conditions: Severe acute respiratory syndrome coronavirus 2; MA10; dose 60.0 mg/kg, route po, time 2-5 day; remark: listed apart in the source
SARS-CoV-2 [13] = type: functional, organism-based; conditions: Severe acute respiratory syndrome coronavirus 2; MA10; dose 60.0 mg/kg, route po, time 2-5 day; remark: listed apart in the source
SARS-CoV-2 [14] = type: functional, organism-based; conditions: Severe acute respiratory syndrome coronavirus 2; MA10; Pneumocyte; dose 30.0 mg/kg, route po, time 2-5 day
SARS-CoV-2 [15] = type: functional, organism-based; conditions: Severe acute respiratory syndrome coronavirus 2; MA10; Pneumocyte; dose 30.0 mg/kg, route po, time 2-5 day; remark: listed apart in the source
SARS-CoV-2 [16] = type: functional, organism-based; conditions: Severe acute respiratory syndrome coronavirus 2; MA10; Pneumocyte; dose 60.0 mg/kg, route po, time 2-5 day
SARS-CoV-2 [17] = type: functional, organism-based; conditions: Severe acute respiratory syndrome coronavirus 2; MA10; Pneumocyte; dose 60.0 mg/kg, route po, time 2-5 day; remark: listed apart in the source
SARS-CoV-2 [18] = type: functional, organism-based; conditions: Severe acute respiratory syndrome coronavirus 2; MA10; dose 30.0 mg/kg, route po, time 2-5 day; remark: listed apart in the source
SARS-CoV-2 [19] = type: functional, organism-based; conditions: Severe acute respiratory syndrome coronavirus 2; MA10; dose 30.0 mg/kg, route po, time 2-5 day; remark: listed apart in the source
SARS-CoV-2 [20] = type: functional, organism-based; conditions: Severe acute respiratory syndrome coronavirus 2; MA10; dose 60.0 mg/kg, route po, time 2-5 day; remark: listed apart in the source
SARS-CoV-2 [21] = type: functional, organism-based; conditions: Severe acute respiratory syndrome coronavirus 2; MA10; dose 60.0 mg/kg, route po, time 2-5 day; remark: listed apart in the source
SARS-CoV-2 [22] = type: functional, organism-based; conditions: Severe acute respiratory syndrome coronavirus 2; MA10; dose 30.0 mg/kg, route po, time 2-5 day; remark: listed apart in the source
SARS-CoV-2 [23] = type: functional, organism-based; conditions: Severe acute respiratory syndrome coronavirus 2; MA10; dose 30.0 mg/kg, route po, time 2-5 day; remark: listed apart in the source
SARS-CoV-2 [24] = type: functional, organism-based; conditions: Severe acute respiratory syndrome coronavirus 2; MA10; dose 60.0 mg/kg, route po, time 2-5 day; remark: listed apart in the source
SARS-CoV-2 [25] = type: functional, organism-based; conditions: Severe acute respiratory syndrome coronavirus 2; MA10; dose 60.0 mg/kg, route po, time 2-5 day; remark: listed apart in the source
SARS-CoV-2 [26] = type: functional, organism-based; conditions: Severe acute respiratory syndrome coronavirus 2; MA10; dose 30.0 mg/kg, route po, time 2.0 day
SARS-CoV-2 [27] = type: functional, organism-based; conditions: Severe acute respiratory syndrome coronavirus 2; MA10; dose 30.0 mg/kg, route po, time 5.0 day
SARS-CoV-2 [28] = conditions: dose 60 mg/kg; route po; time 2 day
SARS-CoV-2 [29] = conditions: dose 30 mg/kg; route po; time 5 day
SARS-CoV-2 [30] = conditions: dose 30 mg/kg; route po; time 5 day; remark: listed apart in the source
SARS-CoV-2 [31] = conditions: dose 60 mg/kg; route po; time 5 day
SARS-CoV-2 [32] = conditions: dose 30 mg/kg; route po; time 4 day
SARS-CoV-2 [33] = conditions: dose 60 mg/kg; route po; time 4 day
SARS-CoV-2 [34] = conditions: dose 60 mg/kg; route po; time 4 day; remark: listed apart in the source
SARS-CoV-2 [35] = conditions: dose 30 mg/kg; route po; time 4 day; remark: listed apart in the source

CCCCCCCCCCCCCCCCCCOC[C@H](COP(=O)(O)OC[C@H]1O[C@@](C#N)(c2ccc3c(N)ncnn23)[C@H](O)[C@@H]1O)OCc1ccccc1
inactive: Activity (SARS-CoV-2 [2]) | Activity (SARS-CoV-2 [3]) | Activity (SARS-CoV-2 [4]) | Activity (SARS-CoV-2 [6]) | Activity (SARS-CoV-2 [7]) | Activity (SARS-CoV-2 [8]) | Activity (SARS-CoV-2 [9]) | Activity (SARS-CoV-2 [10]) | Activity (SARS-CoV-2 [11]) | Activity (SARS-CoV-2 [12]) | Activity (SARS-CoV-2 [13]) | Activity (SARS-CoV-2 [14]) | Activity (SARS-CoV-2 [15]) | Activity (SARS-CoV-2 [16]) | Activity (SARS-CoV-2 [17]) | Activity (SARS-CoV-2 [18]) | Activity (SARS-CoV-2 [19]) | Activity (SARS-CoV-2 [20]) | Activity (SARS-CoV-2 [21]) | Activity (SARS-CoV-2 [22]) | Activity (SARS-CoV-2 [23]) | Activity (SARS-CoV-2 [24]) | Activity (SARS-CoV-2 [25]) | Activity (SARS-CoV-2 [27])
active: Activity (SARS-CoV-2 [1]) | Activity (SARS-CoV-2 [5]) | Activity (SARS-CoV-2 [26])
>2.14: log(activity) (SARS-CoV-2 [29]) | log(activity) (SARS-CoV-2 [30]) | log(activity) (SARS-CoV-2 [31])
1.52: log(activity) (SARS-CoV-2 [28])

CC(C)C(=O)OC[C@H]1O[C@@H](n2cc/c(=N\O)[nH]c2=O)[C@H](O)[C@@H]1O [MOLNUPIRAVIR]
2.6: log(activity) (SARS-CoV-2 [34])
2.1: log(activity) (SARS-CoV-2 [32])
2.9: log(activity) (SARS-CoV-2 [33])

CC(C)C(=O)OC[C@H]1O[C@@](C#N)(c2ccc3c(N)ncnn23)[C@H](OC(=O)C(C)C)[C@@H]1OC(=O)C(C)C
>2.9: log(activity) (SARS-CoV-2 [34]) | log(activity) (SARS-CoV-2 [35])
